This is an account of results in patent US12454675B2, “Method of increasing protein yield in mammalian cells in serum-free culture medium” (AGENCY FOR SCIENCE, TECHNOLOGY AND RESEARCH, priority 2016, dated 2025).

For one test, the system named is HEK293 cells. Kind of test: Disaccharides to support growth of HEK293 cells in PFCDM. Particulars: 10 g/l sugar, seeding 1.0×10^6 cells/ml, 22 days. It is filed as cell-based. From the text: (§1) In (A) CHO-K1 cells were cultivated in a serum-free protein-free cell culture medium, HyQ PF-CHO, with 3.6 g/l of different sugars (maltose, sucrose, lactose, trehalose or glucose) as carbohydrate source. The viable cell densities (lined markers) and culture viabilities (marker only) of these cultures at the beginning and end of each passage over a period of 74 days were plotted. Cultures with sucrose, lactose or trehalose were terminated on Day 31 due to the decreased culture viabilities and reduced viable cell densities. The experiment was repeated with a seeding cell density of 1.0×10^6 cells/ml to obtain similar results. In (B) CHO-DG44 cells were cultivated with a seeding cell density of 1.0×10^6 cells/ml in a serum-free protein-free cell culture medium, HyQ PF-CHO, with 10 g/l of different sugars (maltose, sucrose, lactose, trehalose or glucose) as carbohydrate source. The viable cell densities (lined markers) and cell viabilities (marker only) of these cultures at the beginning and end of each passage over a period of 22 days were plotted. In (C) HEK293 cells were cultivated with a seeding cell density of 1.0×10^6 cells/ml in a protein-free chemically defined cell culture medium, PFCDM, with 10 g/l of different sugars (maltose, sucrose, lactose, trehalose or glucose) as carbohydrate source. The viable cell densities (lined markers) and cell viabilities (marker only) of these cultures at the beginning and end of each passage over a period of 22 days were plotted. Cultures with sucrose, lactose or trehalose were terminated on Day 14 due to the decreased culture viabilities and reduced viable cell densities.

For the next test, the system named is CHO-K1 cells. Kind of test: Adaptation of CHO-K1 cells into HyQ PF-CHO media with different disaccharides. Type of test: cell-based, Chinese Hamster. Conditions: 3.6 g/l sugar, seeding 0.3×10^6 cells/ml, 74 days. Here is the method:
Viable cell density and culture viability were determined by Trypan blue dye exclusion method using Vi-Cell XR Cell Viability Analyzer (Beckman Coulter, Brea, CA) according to manufacturer's instructions. For biochemical and other cell culture parameter analyses, 1 ml of culture sample was centrifuged at 8000 g for 10 minutes to obtain clarified supernatant. […] At each passage during the adaptation process, viable cell density and culture viability before passage and after inoculation into fresh media were determined. […] Osmolality of these culture media were determined to be between 308 and 324 mOsm/kg, well within the range for optimal mammalian cell culture. The viable cell densities and culture viabilities of these cultures at the beginning and end of each passage over a period of 74 days are shown in FIG. 1. […] However, culture viabilities and viable cell densities of the maltose culture started to pick up on Day 14. Proliferation of the cells in maltose culture then maintained over the period of the time studied, while those in the other disaccharides were terminated on Day 31 due to the lack of cell growth and depressed culture viabilities.

In a further test the test system is CHO-DG44 cells. In words: Disaccharides to support growth of CHO-DG44 cells in HyQ PF-CHO. Particulars: 10 g/l sugar, 22 days. It is filed as cell-based, Chinese Hamster.
Text: as §1
To determine whether the same approach can be applied on other CHO cell lines, the use of disaccharides to support the growth of CHO-DG44 cells was evaluated. These cells were cultivated with 10 g/l of maltose, sucrose, lactose, trehalose or glucose as energy source in a serum-free protein-free cell culture medium HyQ PF-CHO. The viable cell densities and culture viabilities of these cultures at the beginning and end of each passage over a period of 22 days are shown in FIG. 1B.

A further test relates to CHO cell culture. Particulars: 3.6 g/l of monosaccharides; cited from earlier work.

Structures are written as SMILES.

Regarding `OC[C@H]1O[C@@H](O[C@H]2[C@H](O)[C@@H](O)C(O)O[C@@H]2CO)[C@H](O)[C@@H](O)[C@H]1O` (some centres unmarked) [lactose], in the test with HEK293 cells, the “proliferation in serum-free culture medium with the sugar as sugar source” value is reported as “not”. The “proliferation in serum-free protein-free culture medium with the sugar as sugar source” value in the test with CHO-K1 cells and in the test with CHO-DG44 cells was “not” throughout.
As for `O=C(CO)[C@@H](O)[C@H](O)[C@H](O)CO` [fructose], in the test with CHO cell culture, the specific consumption rate is 0.21 ng/cell/day.
With `O=C[C@H](O)[C@@H](O)[C@@H](O)[C@H](O)CO` [galactose], the specific consumption rate in the test with CHO cell culture is reported as 0.21 ng/cell/day.
Consider `OC[C@H]1O[C@@](CO)(O[C@H]2O[C@H](CO)[C@@H](O)[C@H](O)[C@H]2O)[C@@H](O)[C@@H]1O` [sucrose], for which the “proliferation in serum-free culture medium with the sugar as sugar source” value with HEK293 cells was “not”. Further, the “proliferation in serum-free protein-free culture medium with the sugar as sugar source” value in the test on CHO-K1 cells and in the test with CHO-DG44 cells was “not” in each case.
Turning to `OC[C@H]1O[C@H](O[C@H]2O[C@H](CO)[C@@H](O)[C@H](O)[C@H]2O)[C@H](O)[C@@H](O)[C@@H]1O` [trehalose], the “proliferation in serum-free culture medium with the sugar as sugar source” value in the test on HEK293 cells is “not”. Besides, the “proliferation in serum-free protein-free culture medium with the sugar as sugar source” value with CHO-K1 cells and with CHO-DG44 cells was “not” in each case.
